Measurements as given in patent US20240165241A1, “TARGETED DELIVERY OF DRUG MOLECULES WITH DRUG LIGANDS CONJUGATED TO RNA NANOPARTICLE MOTION ELEMENTS” (Ohio State Innovation Foundation, priority 2022, published 2024).

Assays:
KB cells = experiment: PI/Annexin V-FITC apoptosis assay; type: cell-based; settings: 500 nM, 24 hr
Experimental: Cell apoptosis effect induced by RNA nanoparticles was evaluated using FITC Annexin V Apoptosis Detection Kit (BD Pharmingen) following manufacturer instructions. Briefly, 5×10^4 KB cells were seeded on a 24-well plate overnight. RNA nanoparticles and free MTX were added into 24-well plate at a final concentration of 500 nM. After a 24 hr incubation at 37° C. in a humidified 5% CO2 environment, cells were trypsinized to single cell suspension, washed with PBS buffer twice, and resuspended in 100 μL 1× Annexin V-FITC binding buffer. Following this 5 μL of Annexin V-FITC and 5 μL of PI were added into each sample and incubated at room temperature for 15 min. The samples were then transferred into flow tubes that contained 200 μL of 1× binding buffer for FACS analysis by FACS Calibur™ flow cytometer within 1 hr. Data were analyzed by FlowJo.

[1] = Water solubility of SN38 after conjugation to RNA (absorbance at 366 nm); type: physicochemical; settings: absorbance at 366 nm versus concentration 12.5-800 μM
Experimental: Three solutions were prepared, RNA-SN38 in DEPC H2O, SN38 in DEPC H2O, and SN38 in DMSO. The absorbance at 366 nm of these three solutions with different concentrations (12.5-800 μM) were measured by NanoDrop 2000 Spectrophotometer (ThermoFisher). […] The picture of RNA-SN38 and SN38 in DEPC H2O at 800 μM were taken for comparison of clarity and turbidity.

SMILES	cells underwent apoptosis (KB cells) [%]	solubility in water [1]
CN(Cc1cnc2nc(N)nc(N)c2n1)c1ccc(C(=O)N[C@@H](CCC(=O)O)C(=O)O)cc1 [MTX, Methotrexate]	69.4	–
CCc1c2c(nc3ccc(O)cc13)-c1cc3c(c(=O)n1C2)COC(=O)[C@]3(O)CC [SN38, 7-Ethyl-10-hydroxycamptothecin]	–	poor water solubility
